Laboratory results as given in US6319702A, “Nucleic acids encoding mutant human carboxypeptidase A enzymes” (Glaxo Wellcome, Inc., priority 1993, dated 2001).

How the values were obtained:
[1] = Prodrug toxicity, maximum tolerated dose; details: Swiss nu/nu mice, IV daily for 5 days
in vivo = details: mouse, iv

## CN(Cc1cnc2nc(N)nc(N)c2n1)c1ccc(C(=O)N[C@@H](CCC(=O)O)C(=O)O)cc1 [methotrexate, reference compound]
[1]
  maximum tolerated dose (MTD): 2.5 mg/kg
In vivo
  MTD: 4 mg/kg
